{
  "source": "ChEMBL document CHEMBL4428134",
  "about": "“Discovery of AZD2716: A Novel Secreted Phospholipase A2 (sPLA2) Inhibitor for the Treatment of Coronary Artery Disease” (ACS Med Chem Lett, 2016)",
  "key": {"[1]": {"molecular_target": "T1, Phospholipase A2, membrane associated (Homo sapiens, UniProt P14555)", "T1 sequence (P14555 whole entry)": "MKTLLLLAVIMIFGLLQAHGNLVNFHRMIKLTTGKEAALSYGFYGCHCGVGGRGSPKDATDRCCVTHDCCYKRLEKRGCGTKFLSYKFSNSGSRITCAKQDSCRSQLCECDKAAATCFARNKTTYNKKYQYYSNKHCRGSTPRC", "test": "(§1) Inhibition of recombinant sPLA2-2A (unknown origin) using 1-palmitoyl-2-oleoyl-sn-glycero-3-phosphocholine as substrate preincubated for 10 mins followed by substrate addition measured after 60 mins by colorimetric method"}, "[2]": {"molecular_target": "T2, Secretory phospholipase A2 (Homo sapiens) (UniProt Q5R387+Q9NZK7+P14555+Q9BZM2+Q9UNK4+P39877+O15496+P04054+Q9NZ20+Q9BZM1+Q9BX93)", "test": "Inhibition of sPLA2 in human plasma using 1-Hexadecanoyl-2-(1-pyrenedecanoyl)-sn-glycero-3-phosphomethanol as substrate preincubated for 10 mins followed by substrate addition measured after 90 mins by fluorescence assay", "assay_type": "cell-free"}, "[3]": {"test": "Inhibition of recombinant sPLA2-5 (unknown origin) using 1-palmitoyl-2-oleoyl-sn-glycero-3-phosphocholine as substrate preincubated for 10 mins followed by substrate addition measured after 60 mins by colorimetric method", "design": "species or system Homo sapiens"}, "[4]": {"molecular_target": "T3, Group 10 secretory phospholipase A2 (Homo sapiens, UniProt O15496)", "T3 sequence (O15496 whole entry)": "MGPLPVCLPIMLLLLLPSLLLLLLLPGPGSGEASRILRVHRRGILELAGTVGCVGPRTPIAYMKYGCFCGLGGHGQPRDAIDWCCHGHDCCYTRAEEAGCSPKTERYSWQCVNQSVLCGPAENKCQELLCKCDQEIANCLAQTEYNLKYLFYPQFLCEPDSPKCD", "test": "Inhibition of recombinant sPLA2-10 (unknown origin) using 1-palmitoyl-2-oleoyl-sn-glycero-3-phosphocholine as substrate preincubated for 10 mins followed by substrate addition measured after 60 mins by colorimetric method"}, "[5]": {"test": "Intrinsic clearance in human hepatocytes at 1 uM assessed per million cells measured up to 60 mins", "assay_type": "ADME, cell-based, Hepatocyte", "conditions": "1 h"}, "[6]": {"molecular_target": "Solute carrier organic anion transporter family member 1B1 (Homo sapiens, UniProt Q9Y6L6)", "sequence (Q9Y6L6 whole entry)": "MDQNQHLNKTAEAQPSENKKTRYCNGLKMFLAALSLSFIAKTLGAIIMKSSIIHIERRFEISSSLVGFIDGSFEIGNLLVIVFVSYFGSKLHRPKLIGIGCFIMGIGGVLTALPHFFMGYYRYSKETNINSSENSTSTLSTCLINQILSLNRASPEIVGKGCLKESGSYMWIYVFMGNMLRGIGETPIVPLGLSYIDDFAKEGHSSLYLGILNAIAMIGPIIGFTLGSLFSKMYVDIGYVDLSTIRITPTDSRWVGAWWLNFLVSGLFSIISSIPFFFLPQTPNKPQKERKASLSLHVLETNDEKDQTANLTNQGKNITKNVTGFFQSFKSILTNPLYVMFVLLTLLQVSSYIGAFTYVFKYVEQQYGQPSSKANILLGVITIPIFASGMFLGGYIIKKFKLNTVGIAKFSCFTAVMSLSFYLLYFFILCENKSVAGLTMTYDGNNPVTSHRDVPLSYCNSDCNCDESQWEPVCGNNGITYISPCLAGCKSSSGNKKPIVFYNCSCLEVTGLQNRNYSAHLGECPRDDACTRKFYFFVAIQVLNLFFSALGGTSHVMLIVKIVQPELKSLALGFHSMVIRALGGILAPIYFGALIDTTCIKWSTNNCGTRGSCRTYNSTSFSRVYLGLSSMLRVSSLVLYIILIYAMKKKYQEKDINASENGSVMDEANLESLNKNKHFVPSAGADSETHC", "test": "Inhibition of human OATP1B1 expressed in HEK293 cells assessed as reduction in […] uptake at 25 uM", "assay_type": "cell-based", "conditions": "hek293, 25 µM"}, "[7]": {"molecular_target": "Phospholipase A2, membrane associated (Homo sapiens) (UniProt P14555)", "test": "as §1"}, "[8]": {"test": "Unbound fraction in human plasma", "assay_type": "ADME, cell-free"}, "[9]": {"species": "Homo sapiens", "test": "Inhibition of recombinant sPLA2-5 (unknown origin) at 25 uM using 1-palmitoyl-2-oleoyl-sn-glycero-3-phosphocholine as substrate preincubated for 10 mins followed by substrate addition measured after 60 mins by colorimetric method"}, "[10]": {"molecular_target": "T2, Secretory phospholipase A2 (Homo sapiens)", "test": "Inhibition of sPLA2 in human plasma at 25 uM using 1-Hexadecanoyl-2-(1-pyrenedecanoyl)-sn-glycero-3-phosphomethanol as substrate preincubated for 10 mins followed by substrate addition measured after 90 mins by fluorescence assay", "assay_type": "cell-free"}},
  "note": "Calls of active or inactive are those of the source. The rule behind the calls is not given here.",
  "data": [
    {"compound": "CC(Cc1cccc(-c2cc(Cc3ccccc3)ccc2C(N)=O)c1)C(=O)O", "note": "(configuration not stated)", "values": [
      {"measurement": "IC50", "setting": "[1]", "value": 0.011, "unit": "µM"},
      {"measurement": "fIC50", "setting": "[2]", "value": 0.001, "unit": "µM"},
      {"measurement": "IC50", "setting": "[3]", "value": 0.07, "unit": "µM"},
      {"measurement": "IC50", "setting": "[4]", "value": 0.75, "unit": "µM"},
      {"measurement": "CLint", "setting": "[5]", "value": 9.6, "unit": "µL/min/1e6 cells"},
      {"measurement": "inhibition (INH)", "setting": "[6]", "value": "Not Active"}
    ]},
    {"compound": "NC(=O)c1ccc(Cc2ccccc2)cc1", "values": [
      {"measurement": "inhibition", "setting": "[7]", "value": "Dose-dependent effect"},
      {"measurement": "IC50", "setting": "[1]", "value": 24, "unit": "µM"},
      {"measurement": "fIC50", "setting": "[2]", "value": 0.9, "unit": "µM"},
      {"measurement": "Fu", "setting": "[8]", "value": 1.8, "unit": "%"},
      {"measurement": "IC50", "setting": "[4]", "value": 2.2, "unit": "µM"},
      {"measurement": "inhibition", "setting": "[9]", "value": "inactive"}
    ]},
    {"compound": "NC(=O)c1ccc(Cc2ccccc2)cc1-c1cccc(CCCC(=O)O)c1", "values": [
      {"measurement": "IC50", "setting": "[1]", "value": 0.11, "unit": "µM"},
      {"measurement": "fIC50", "setting": "[2]", "value": 0.03, "unit": "µM"},
      {"measurement": "IC50", "setting": "[3]", "value": 4.1, "unit": "µM"},
      {"measurement": "IC50", "setting": "[4]", "value": 5.4, "unit": "µM"}
    ]},
    {"compound": "NC(=O)c1ccc(Cc2ccccc2)cc1-c1cccc(C(=O)O)c1", "values": [
      {"measurement": "IC50", "setting": "[1]", "value": 0.91, "unit": "µM"},
      {"measurement": "IC50", "setting": "[3]", "value": "> 10", "unit": "µM"},
      {"measurement": "inhibition", "setting": "[10]", "value": "inactive"}
    ]},
    {"compound": "CCc1c(C(=O)C(N)=O)c2c(OCC(=O)O)cccc2n1Cc1ccccc1", "note": "[VARESPLADIB]", "values": [
      {"measurement": "fIC50", "setting": "[2]", "value": 0.008, "unit": "µM"},
      {"measurement": "Fu", "setting": "[8]", "value": 12.5, "unit": "%"},
      {"measurement": "IC50", "setting": "[3]", "value": 0.12, "unit": "µM"}
    ]}
  ]
}
